The results in this text go back to patent publication US20240025906A1 (NEURON23, INC., priority 2022, published 2024).

Where a name gives a salt, the structure may show the parent alone.

One assay has as its target T1, TYK2 JH2 (Homo sapiens, UniProt P29597).
T1 construct: purchased DiscoverX (KINOMEscan KdELECT service); host or cells: E. coli BL21-derived (T7 phage display) or HEK-293
The experiment in a line: TYK2 JH2 binding assay (KINOMEscan KdELECT competitive binding). As to conditions: TYK2 JH2 domain, KINOMEscan KdELECT (Assay A); read-out: Biochemical TYK2_DiscoverX_JH2_BND_Kd. A digest of the protocol: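 Competition binding, KdELECT format. Kinase (phage-tagged, E. coli BL21-derived host; or HEK-293, DNA-tagged) + ligand-coated streptavidin beads + cpd, 1 h RT, final DMSO 0.9%. Wash, elute 30 min with 0.5 μM non-biotinylated ligand; qPCR readout. Kd: 11-pt, 3-fold series.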

The subject of assay [1] is JAK1/TYK2 pSTAT5 (Tyr694/699) in THP-1 cell line. The experiment in a line: IFNa-stimulated JAK1/TYK2 pSTAT5 (Tyr694/699) inhibition cellular assay, AlphaLISA. The assay is classed as cell-based. The note with it: Homo sapiens; THP-1 cells, IFNa-stimulated, AlphaLISA (Assay B); read-out: Cellular_THP1_IFNa-pSTATS_TYK2. The procedure, abridged:
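Compound dilutions were dispensed first, and HBSS-suspended THP-1 cells were added on top (final top concentration 10000 nM, 6-fold series). After 1 h at 37 °C, IFNa (100 ng/mL as added) was applied for 30 min. Cells were then lysed and pSTAT5 was quantified by AlphaLISA.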
On the technique in general: Bead proximity is the source of the signal in Alpha formats.

T1 sequence (P29597 589-875 limits assumed): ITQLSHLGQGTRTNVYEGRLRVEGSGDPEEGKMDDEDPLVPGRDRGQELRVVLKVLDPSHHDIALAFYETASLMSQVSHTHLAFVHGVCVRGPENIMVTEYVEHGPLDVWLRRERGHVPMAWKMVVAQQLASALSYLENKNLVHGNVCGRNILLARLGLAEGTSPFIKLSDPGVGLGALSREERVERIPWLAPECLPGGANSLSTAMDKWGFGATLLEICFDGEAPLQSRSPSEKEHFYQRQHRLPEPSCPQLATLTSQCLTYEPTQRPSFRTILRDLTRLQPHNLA

On to `CNc1ncc(-c2ccn(CCc3ncn(C)n3)n2)c2cc(NC(=O)C3CC3)ncc12` [Example 835A, N-(5-(1-(2-(1-methyl-1H-1,2,4-triazol-3-yl)ethyl)-1H-pyrazol-3-yl)-8-(methylamino)-2,7-naphthyridin-3-yl)cyclopropanecarboxamide], for which the Kd on TYK2 JH2 was at most 100 nM. Moreover, in assay [1], the IC50 is over 500 nM.

Take `CNc1ncc(-c2ccn(CCc3ncnn3C)n2)c2cc(NC(=O)C3CC3)ncc12` [Example 836, N-(5-(1-(2-(1-methyl-1H-1,2,4-triazol-5-yl)ethyl)-1H-pyrazol-3-yl)-8-(methylamino)-2,7-naphthyridin-3-yl)cyclopropanecarboxamide]: the Kd on TYK2 JH2 is at most 100 nM. In addition, the IC50 in assay [1] was over 500 nM.

On to `CNc1ncc(CCc2ccc(S(C)(=O)=O)cc2)c2cc(NC(=O)C3CC3)ncc12` [Example 839, N-(8-(methylamino)-5-(4-(methylsulfonyl)phenethyl)-2,7-naphthyridin-3-yl)cyclopropanecarboxamide], for which the Kd on TYK2 JH2 was at most 100 nM. In addition, in assay [1], the IC50 is at most 500 nM.

For `CNc1ncc(-c2cn3cccnc3n2)c2cc(NC(=O)C3CC3)ncc12` [Example 841, N-(5-(imidazo[1,2-a]pyrimidin-2-yl)-8-(methylamino)-2,7-naphthyridin-3-yl)cyclopropanecarboxamide], the Kd on TYK2 JH2 is at most 100 nM. In addition, the IC50 in assay [1] was over 500 nM.

Take `CNc1ncc(-c2nc3n(n2)CCCC3)c2cc(NC(=O)C3CC3)ncc12` [Example 842, N-(8-(methylamino)-5-(5,6,7,8-tetrahydro-[1,2,4]triazolo[1,5-a]pyridin-2-yl)-2,7-naphthyridin-3-yl)cyclopropanecarboxamide]: the Kd at TYK2 JH2 was at most 100 nM. In addition, in assay [1], the IC50 is over 500 nM.

As for `CNc1ncc(-c2nc3c(o2)CCCC3)c2cc(NC(=O)C3CC3)ncc12` [Example 843, N-(8-(methylamino)-5-(4,5,6,7-tetrahydrobenzo[d]oxazol-2-yl)-2,7-naphthyridin-3-yl)cyclopropanecarboxamide], the Kd on TYK2 JH2 is at most 100 nM. Further, the IC50 in assay [1] was at most 500 nM.

Take `CNc1ncc(C23CC(C2)C3)c2cc(NC(=O)C3CC3)ncc12` [Example 844, N-(5-(bicyclo[1.1.1]pentan-1-yl)-8-(methylamino)-2,7-naphthyridin-3-yl)cyclopropanecarboxamide]: at TYK2 JH2, the Kd is at most 100 nM. Further, the IC50 in assay [1] is over 500 nM.

Take `CNc1ncc(C23CC(c4ccncc4)(C2)C3)c2cc(NC(=O)C3CC3)ncc12` [Example 845, N-(8-(methylamino)-5-(3-(pyridin-4-yl)bicyclo[1.1.1]pentan-1-yl)-2,7-naphthyridin-3-yl)cyclopropanecarboxamide]: the Kd at TYK2 JH2 was at most 100 nM. The IC50 in assay [1] is over 500 nM.

As for `CCNc1ncc(-c2ccccc2)c2cc(NC(=O)C3CC3)ncc12` [Example 846, N-(8-(ethylamino)-5-phenyl-2,7-naphthyridin-3-yl)cyclopropanecarboxamide], the Kd on TYK2 JH2 was at most 100 nM. Moreover, the IC50 in assay [1] is over 500 nM.

Consider `CNc1ncc(-c2ccc(-c3c(C)cnn3C)cc2)c2cc(NC(=O)C3CC3)ncc12` [Example 847, N-(5-(4-(1,4-dimethyl-1H-pyrazol-5-yl)phenyl)-8-(methylamino)-2,7-naphthyridin-3-yl)cyclopropanecarboxamide], for which the Kd at TYK2 JH2 is at most 100 nM. The IC50 in assay [1] was at most 500 nM.

On to `CNc1ncc(CCc2ccc(OC(F)(F)F)cc2)c2cc(NC(=O)C3CC3)ncc12` [Example 848, N-(8-(methylamino)-5-(4-(trifluoromethoxy)phenethyl)-2,7-naphthyridin-3-yl)cyclopropanecarboxamide], for which, at TYK2 JH2, the Kd was at most 100 nM. Further, in assay [1], the IC50 was over 500 nM.

`CNc1ncc(C2=CCc3ccccc3O2)c2cc(NC(=O)C3CC3)ncc12` [Example 849, N-(5-(4H-chromen-2-yl)-8-(methylamino)-2,7-naphthyridin-3-yl)cyclopropanecarboxamide]: the Kd on TYK2 JH2 was at most 100 nM. Besides, in assay [1], the IC50 was over 500 nM.

In the case of `CNc1ncc(C2=Cc3ccccc3CO2)c2cc(NC(=O)C3CC3)ncc12` [Example 850, N-(5-(1H-isochromen-3-yl)-8-(methylamino)-2,7-naphthyridin-3-yl)cyclopropanecarboxamide], the Kd on TYK2 JH2 was at most 100 nM. In assay [1], the IC50 was at most 500 nM.

On to `CNc1ncc(-c2ccc(-c3cnn(C)n3)cc2)c2cc(NC(=O)C3CC3)ncc12` [Example 851, N-(5-(4-(2-methyl-2H-1,2,3-triazol-4-yl)phenyl)-8-(methylamino)-2,7-naphthyridin-3-yl)cyclopropanecarboxamide], for which the Kd at TYK2 JH2 was at most 100 nM. Further, in assay [1], the IC50 was at most 500 nM.

Turning to `CNc1ncc(-c2ccn(CCOC)n2)c2cc(NC(=O)C3CC3)ncc12` [Example 852, N-(5-(1-(2-methoxyethyl)-1H-pyrazol-3-yl)-8-(methylamino)-2,7-naphthyridin-3-yl)cyclopropanecarboxamide], on TYK2 JH2, the Kd was at most 100 nM. The IC50 in assay [1] was over 500 nM.

As for `CNc1ncc(-c2nc3n(n2)CCC3)c2cc(NC(=O)C3CC3)ncc12` [Example 853, N-(5-(6,7-dihydro-5H-pyrrolo[1,2-b][1,2,4]triazol-2-yl)-8-(methylamino)-2,7-naphthyridin-3-yl)cyclopropanecarboxamide formate], the Kd at TYK2 JH2 was at most 100 nM. Further, in assay [1], the IC50 is over 500 nM.

In the case of `CNc1ncc(-c2nc3c(o2)CCC(C(F)(F)F)C3)c2cc(NC(=O)C3CC3)ncc12` (centres unmarked) [Example 855, N-(8-(methylamino)-5-(5-(trifluoromethyl)-4,5,6,7-tetrahydrobenzo[d]oxazol-2-yl)-2,7-naphthyridin-3-yl)cyclopropanecarboxamide], the Kd on TYK2 JH2 is at most 100 nM. Besides, in assay [1], the IC50 is over 500 nM.

`CNc1ncc(-c2ccc(Oc3cncs3)cc2)c2cc(NC(=O)C3CC3)ncc12` [Example 857, N-(8-(methylamino)-5-(4-(thiazol-5-yloxy)phenyl)-2,7-naphthyridin-3-yl)cyclopropanecarboxamide]: at TYK2 JH2, the Kd is at most 100 nM. Moreover, the IC50 in assay [1] is at most 500 nM.

`CNc1ncc(-c2ccc(Oc3ccncc3)cc2)c2cc(NC(=O)C3CC3)ncc12` [Example 858, N-(8-(methylamino)-5-(4-(pyridin-4-yloxy)phenyl)-2,7-naphthyridin-3-yl)cyclopropanecarboxamide]: the Kd at TYK2 JH2 is at most 100 nM. For the same compound, the IC50 in assay [1] is at most 500 nM.

For the compound `CNc1ncc(-c2ccc(OCCOC)cc2)c2cc(NC(=O)C3CC3)ncc12` [Example 859, N-(5-(4-(2-methoxyethoxy)phenyl)-8-(methylamino)-2,7-naphthyridin-3-yl)cyclopropanecarboxamide], at TYK2 JH2, the Kd was at most 100 nM. Further, the IC50 in assay [1] was at most 500 nM.

With `CNc1ncc(-c2ccc(N3CCC3CC#N)cc2)c2cc(NC(=O)C3CC3)ncc12` (centres unmarked) [Example 860, N-(5-(4-(2-(cyanomethyl)azetidin-1-yl)phenyl)-8-(methylamino)-2,7-naphthyridin-3-yl)cyclopropanecarboxamide], on TYK2 JH2, the Kd is at most 100 nM. In addition, the IC50 in assay [1] was over 500 nM.

As for `CNc1ncc(-c2ccc(O)cc2)c2cc(NC(=O)C3CC3)ncc12` [Example 861, N-(5-(4-hydroxyphenyl)-8-(methylamino)-2,7-naphthyridin-3-yl)cyclopropanecarboxamide], on TYK2 JH2, the Kd is at most 100 nM. Also, the IC50 in assay [1] is at most 500 nM.

On to `CNc1ncc(-c2ccc(Oc3ccnc(C)c3)cc2)c2cc(NC(=O)C3CC3)ncc12` [Example 862, N-(8-(methylamino)-5-(4-((2-methylpyridin-4-yl)oxy)phenyl)-2,7-naphthyridin-3-yl)cyclopropanecarboxamide], for which the Kd on TYK2 JH2 is at most 100 nM. Besides, the IC50 in assay [1] was at most 500 nM.

For `CNc1ncc(-c2ccc(Oc3ccccn3)cc2)c2cc(NC(=O)C3CC3)ncc12` [Example 863, N-(8-(methylamino)-5-(4-(pyridin-2-yloxy)phenyl)-2,7-naphthyridin-3-yl)cyclopropanecarboxamide], on TYK2 JH2, the Kd is at most 100 nM. In assay [1], the IC50 is at most 500 nM.

On to `CNc1ncc(-c2ccc(Oc3cccnc3)cc2)c2cc(NC(=O)C3CC3)ncc12` [Example 864, N-(8-(methylamino)-5-(4-(pyridin-3-yloxy)phenyl)-2,7-naphthyridin-3-yl)cyclopropanecarboxamide], for which the Kd on TYK2 JH2 was at most 100 nM. The IC50 in assay [1] was at most 500 nM.

As to `CNc1ncc(-c2ccc(Oc3ncn(C)n3)cc2)c2cc(NC(=O)C3CC3)ncc12` [Example 865, N-(5-(4-((1-methyl-1H-1,2,4-triazol-3-yl)oxy)phenyl)-8-(methylamino)-2,7-naphthyridin-3-yl)cyclopropanecarboxamide], on TYK2 JH2, the Kd was at most 100 nM. In assay [1], the IC50 is at most 500 nM.

In the case of `CNc1ncc(CCc2ccc3nnn(C)c3c2)c2cc(NC(=O)C3CC3)ncc12` [Example 866, N-(5-(2-(1-methyl-1H-benzo[d][1,2,3]triazol-6-yl)ethyl)-8-(methylamino)-2,7-naphthyridin-3-yl)cyclopropanecarboxamide], the Kd at TYK2 JH2 is at most 100 nM. Also, the IC50 in assay [1] is at most 500 nM.

For `CNc1ncc(-c2ccc(OCc3ccncc3)cc2)c2cc(NC(=O)C3CC3)ncc12` [Example 867, N-(8-(methylamino)-5-(4-(pyridin-4-ylmethoxy)phenyl)-2,7-naphthyridin-3-yl)cyclopropanecarboxamide], the Kd at TYK2 JH2 was at most 100 nM. Moreover, the IC50 in assay [1] was at most 500 nM.
